Legend:
[1] = test system: angiotensin II receptor subtype 2 (AT2); assay: Binding to receptors: inhibition of radioligand (125I-Tyr4-angiotensin II) binding to AT2; details: bovine cerebellar cortex, tracer 125I-Tyr4-angiotensin II, displacer angiotensin II (human), 37° C., 1 hour
Procedure: (§1) In this Example, the affinity to the angiotensin II receptor subtype 1 or subtype 2 was evaluated by a binding assay in accordance with the method described in Biochem. Pharmacol., 33, 4057-4062 (1984).
(§2) Specifically, the measurement of the total binding in the presence of each drug was performed as follows:
(§3) A mixture (final volume=0.25 ml) of a drug in a given concentration (the drug was dissolved in dimethylsulfoxide, and diluted to a double volume with a buffer attached to a drug discovery system to prepare a sample for the assay; 0.025 ml), a tracer (0.025 ml), and receptors (0.2 ml) was incubated [in the case of the angiotensin II receptor subtype 1 (AT1), at room temperature for 3 hours, and in the case of the subtype 2 (AT2), at 37° C. for 1 hour]. Then, the reaction mixture was filtered with suction (GF/C filter was used in AT1, and GF/B filter was used in AT2). The filter papers after filtration with suction (the tracer bound to the receptors) were counted by a γ-wellcounter (ARC-500, Aloka). The non-specific bindings were measured by repeating the above method, except that a large excess amount of a displacer was added. The specific binding of the drug in the given concentration was calculated by subtracting the non-specific binding from the total binding, respectively. […]

[2] = test system: angiotensin II receptor subtype 1 (AT1); assay: Binding to receptors: inhibition of radioligand (3H-angiotensin II) binding to AT1; details: rabbit adrenal glands, tracer 3H-angiotensin II, displacer DuP753, room temperature
Procedure: as §1, §2, §3

Binding inhibition % in 1 μM, AT2 [1] [%]	Binding inhibition % in 1 μM, AT1 [2] [%]	SMILES
0	100	CCCCc1nc2ccc(S(=O)(=O)N3CCOCC3)cc2n1Cc1ccc(-c2ccccc2-c2nn[nH]n2)cc1 [Compound No. 1, 4-[[2-n-butyl-1-[2'-[(1H-tetrazol-5-yl)biphenyl-4-yl]methyl]benzimidazol-6-yl]sulfonyl]morpholin]
0	95	CCCCc1nc(Cl)c(CO)n1Cc1ccc(-c2ccccc2-c2nnn[nH]2)cc1 [DuP753, 2-butyl-4-chloro-5-(hydroxymethyl)-1-[[2'-(1H-tetrazol-5-yl)biphenyl-4-yl]methyl]imidazole]
